Data taken from patent US20250332173A1, “COMPOUNDS AND METHODS FOR MODULATING NUCLEIC ACID SPLICING” (REMIX THERAPEUTICS INC., priority 2021, published 2025).

Tests used:
HTT = experiment: HiBiT protein abundance assay, HTT HiBiT K562 cell line; format: cell-based, human; details: HiBiT K562 cell line, 24 hours, top dose 10 μM; read-out: Effect on protein abundance, HTT (IC50 category)
How it was run: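 Endogenous targets in K562 knock-in lines carried a HiBiT tag and were treated for 24 h at 37 °C with 10-point 3-fold dilutions (top 10 μM final, DMSO ≤0.25%). Abundance was read as lytic Nano-Glo HiBiT luminescence. IC50 came from a four-parameter logistic fit of normalized response.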

Target C = experiment: RT-qPCR splicing assay panel, Target C canonical junction (CJ) mRNA; format: cell-based, human; details: Homo sapiens; Table 5 panel; canonical junction qPCR; compound concentration having 50% response in CJ decrease; read-out: Target C IC50 (decrease in CJ mRNA levels)
How it was run: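 Read-out is canonical exon-exon junction mRNA quantified by RT-qPCR against a GAPDH, GUSB or PPIA control. Cells (A673 or K562) received compound for 24 h, top final dose 10 uM in an 11-point 3-fold series.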

IC50 (HTT) | IC50 (Target C) | Structure (SMILES)
100 to 1000 nM | 1000 to 10000 nM | Cc1cn2cc(-c3cc(F)c4c(=O)n(C5CCNC6(CC6)C5)ccc4c3)ncc2n1 (stereo not shown) [Compound 428, 8-fluoro-6-(2-methylimidazo[1,2-a]pyrazin-6-yl)-2-(4-azaspiro[2.5]octan-7-yl)isoquinolin-1(2H)-one]
< 100 nM | 100 to 1000 nM | Cn1cc2cc(-c3cc(F)c4c(=O)n(C5CCNCC5)ccc4c3)cc(C#N)c2n1 [Compound 394, 5-(8-fluoro-1-oxo-2-(piperidin-4-yl)-1,2-dihydroisoquinolin-6-yl)-2-methyl-2H-indazole-7-carbonitrile]
< 100 nM | < 100 nM | Cc1cn2nc(-c3cc(F)c4c(=O)n(C5CCNC6(CC6)C5)ccc4c3)cc(C)c2n1 (stereo not shown) [Compound 380, 6-(2,8-dimethylimidazo[1,2-b]pyridazin-6-yl)-8-fluoro-2-(4-azaspiro[2.5]octan-7-yl)isoquinolin-1(2H)-one]
1000 to 10000 nM | 1000 to 10000 nM | Cc1cn2cc(-c3ccc4c(=O)n([C@@H]5CCCNC5)ccc4c3)cc(F)c2n1 (single isomer, unassigned) [Compound 403]
100 to 1000 nM | > 10000 nM | Cc1cn2nc(-c3ccc4c(=O)n(C5CCCNC5)ccc4c3)cc(C)c2n1 (stereo in doubt) [Compound 410, 6-{2,8-dimethylimidazo[1,2-b]pyridazin-6-yl}-2-[(3S)-piperidin-3-yl]isoquinolin-1-one]
1000 to 10000 nM | > 10000 nM | Cc1cn2cc(-c3ccc4c(=O)n([C@H]5CCCNC5)ccc4c3)cc(F)c2n1 [Compound 404, 6-{8-fluoro-2-methylimidazo[1,2-a]pyridin-6-yl}-2-[(3S)-piperidin-3-yl]isoquinolin-1-one]
< 100 nM | < 100 nM | Cc1cn2nc(-c3cc(F)c4c(=O)n([C@@H]5CCNC6(CC6)C5)ncc4c3)cc(C)c2n1 [Compound 446]
< 100 nM | 100 to 1000 nM | Cc1cn2nc(-c3ccc4c(=O)n([C@@H]5CCNC6(CC6)C5)ncc4c3)cc(C)c2n1 (stereo in doubt) [Compound 368, 2-[(7R)-4-azaspiro[2.5]octan-7-yl]-6-{2,8-dimethylimidazo[1,2-b]pyridazin-6-yl}phthalazin-1-one]
< 100 nM | < 100 nM | Cc1cn2nc(-c3ccc4c(=O)n([C@H]5CCNC6(CC6)C5)ccc4c3)cc(C)c2n1 [Compound 445]
> 10000 nM | > 10000 nM | Cn1cc2cc(-n3cnc4cc(C5CCNCC5)ccc4c3=O)ccc2n1 [Compound 172]
1000 to 10000 nM | 1000 to 10000 nM | Cc1cn2nc(-c3cc(F)c4c(=O)n(C5CCNC5)ccc4c3)cc(C)c2n1 (stereo in doubt) [Compound 392, (S)-6-(2,8-dimethylimidazo[1,2-b]pyridazin-6-yl)-8-fluoro-2-(pyrrolidin-3-yl)isoquinolin-1(2H)-one]
1000 to 10000 nM | > 10000 nM | Cc1cn2cc(-c3ccc4c(=O)n(C5CCNC5)cc(C)c4c3)cc(F)c2n1 (stereo not shown) [Compound 441, 6-{8-fluoro-2-methylimidazo[1,2-a]pyridin-6-yl}-4-methyl-2-(pyrrolidin-3-yl)isoquinolin-1-one]
< 100 nM | < 100 nM | Cc1cn2nc(-c3cc(F)c4c(=O)n([C@@H]5CCNC6(CC6)C5)ccc4c3)cc(C)c2n1 (single isomer, unassigned) [Compound 425]
< 100 nM | < 100 nM | Cc1cn2nc(-c3cc(F)c4c(=O)n([C@H]5CCNC6(CC6)C5)ccc4c3)cc(C)c2n1 (single isomer, unassigned) [Compound 426]
> 10000 nM |  | Cn1cc2cc(-n3cnc4cc(NC5CCNCC5)ccc4c3=O)ccc2n1 [Compound 162]
> 10000 nM |  | Cc1cc(-c2ccc3c(=O)n(C4CCN(C)CC4)cnc3n2)cc2cn(C)nc12 [Compound 173]
100 to 1000 nM |  | Cc1cc(-c2ccc3c(=O)n(C4CCNCC4)cnc3c2)cc2cn(C)nc12 [Compound 174]
